Data on one compound can be found in patent publication US20140315322A1 (FUSO PHARMACEUTICAL INDUSTRIES, LTD., priority 2011, published 2014).

Values joined by “and” are separate entries in the source; they are usually repeats but may differ in a detail not shown here. Equal values may be shown once.

Series [1] can be described thus: clinical. The following applies: blood plasma of individual dialysis patients treated with acetic acid-containing dialysis fluid, dialysis time 4 hr. The protocol:
From ΔE of samples for calibration curve (W2 to 8, n=1), calibration curve (Y=aX+b, Y: ΔE, X: concentration μmol/L) was prepared by using least-squares method. No weighting of calibration curve was carried out. The range of quantitative analysis was from 20 to 2000 μmol/L.
(§1) The measured value of each sample was calculated by applying the peak area ratio or ΔE to the calibration curve, and rounding off to one decimal place.

A short description of series [2]: clinical. Particulars: blood plasma of individual dialysis patients treated with acetic acid-containing dialysis fluid, dialysis time 4 hr. How it is done:
Into a polypropylene tube, each sample (400 μL, samples for calibration curve and human blood plasma) was taken, and the internal standard solution IS-W1 (100 μL) was added thereto. Further, 10% sulfosalicylic acid (special grade, manufactured by Wako Pure Chemical Industries) solution (100 μL) was added thereto and stirred. To this solution was added MTBE (400 μL, Lot No. EPF0734, manufactured by Wako Pure Chemical Industries) and stirred for 1 minute. After that, the mixture was subjected to centrifugation (RX-200, manufactured by TOMY SEIKO) at 10000 rpm at 4° C. for 5 minutes, and the supernatant (200 μL) was taken into another glass vial. Then, to the supernatant was added N-methyl-N-(tert-butyldimethylsilyl)trifluoroacetamide (MTBSTFA) (5 to 10 μL, Lot No. BCBC7878, manufactured by ALDRICH) and heated with Block Heater (DTU-2B, manufactured by TAITEC) at 60° C. for 1 to 2 hours. After that, the resultant solution was measured by using GC/MS (JMS-AMII150, manufactured by JEOL) in the following conditions.
Samples were pretreated in the same method as that of “4. Pretreatment method and measurement method for samples” of Example 1, and then measured by GC/MS (5975C GCMSD, manufactured by Agilent) in the following conditions. […]
as §1
This is another data set of the same source.

As for `CC(=O)O` [acetic acid], in “clinical [1]”, the “Measured value, Enzyme method” value was 1620.3 µmol/L and 1653.5 µmol/L and 1896.4 µmol/L. Also, the concentration at 4 h in “clinical [1]” (human, plasma, other: dialysis with a dialysis fluid containing acetic acid, Measured value, Enzyme method) was found to be 1680 µM; in “clinical [2]” (human, plasma, other: dialysis with a dialysis fluid containing acetic acid, Measured value, GC/MS method) it was 1790 µM. In addition, the “Measured value, GC/MS method” value in “clinical [2]” was 1745.5 µmol/L and 1854.9 µmol/L and 1991.5 µmol/L.
